Tests used:
Experiment in all cases: Kinase panel
Assay type in all cases: biochemical
CDK19/cyclin C = CDK19/cyclin C (Homo sapiens, UniProt Q9BWU1); conditions: read-out: residual enzyme activity
Summary of the method: (§1)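 Compounds were applied once, at 1 µM, to each kinase of a broad biochemical panel, and remaining enzyme activity was calculated. A kinase counted as inhibited if that remaining activity fell to 40% or below.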

DLK/MAP3K12 = DLK/MAP3K12 (Homo sapiens, UniProt Q12852); conditions: DLK/MAP3K12, 1 µM; read-out: residual enzyme activity
Summary of the method: as §1

CDK8/cyclin C = CDK8/cyclin C (Homo sapiens, UniProt P49336); conditions: read-out: residual enzyme activity
Summary of the method: as §1

RIPK3 = RIPK3 (Homo sapiens, UniProt Q9Y572); conditions: RIPK3, 1 µM; read-out: residual enzyme activity
Summary of the method: as §1

PKMYT1 = PKMYT1 (Homo sapiens, UniProt Q99640); conditions: PKMYT1, 1 µM; read-out: residual enzyme activity
Summary of the method: as §1

CDK4/CYCLIN D2 = CDK4/CYCLIN D2 (Homo sapiens, UniProt P11802); conditions: CDK4/CYCLIN D2, 1 µM; read-out: residual enzyme activity
Summary of the method: as §1

CDK6/CYCLIN D2 = CDK6/CYCLIN D2 (Homo sapiens, UniProt Q00534); conditions: CDK6/CYCLIN D2, 1 µM; read-out: residual enzyme activity
Summary of the method: as §1

Chain of CDK6/CYCLIN D2 (Q00534 whole entry, species assumed): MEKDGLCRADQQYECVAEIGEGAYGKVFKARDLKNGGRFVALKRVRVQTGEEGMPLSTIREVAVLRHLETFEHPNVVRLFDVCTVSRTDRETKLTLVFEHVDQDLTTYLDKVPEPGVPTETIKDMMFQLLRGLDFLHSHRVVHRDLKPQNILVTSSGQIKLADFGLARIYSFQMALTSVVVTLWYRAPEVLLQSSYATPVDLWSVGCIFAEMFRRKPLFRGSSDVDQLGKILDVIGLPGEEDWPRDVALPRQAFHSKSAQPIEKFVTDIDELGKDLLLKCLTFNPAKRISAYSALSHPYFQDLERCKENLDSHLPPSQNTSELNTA
Chain of CDK6/CYCLIN D2 (P30279 whole entry partner, species assumed): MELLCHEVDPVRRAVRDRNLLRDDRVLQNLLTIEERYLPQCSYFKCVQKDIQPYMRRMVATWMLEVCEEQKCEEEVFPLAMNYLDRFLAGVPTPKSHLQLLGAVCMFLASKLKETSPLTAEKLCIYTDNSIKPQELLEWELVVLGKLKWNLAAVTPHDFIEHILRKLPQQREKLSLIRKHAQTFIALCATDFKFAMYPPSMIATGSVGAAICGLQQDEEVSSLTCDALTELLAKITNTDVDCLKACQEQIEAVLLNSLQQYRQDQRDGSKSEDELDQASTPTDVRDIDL
Chain of PKMYT1 (Q99640 whole entry, species assumed): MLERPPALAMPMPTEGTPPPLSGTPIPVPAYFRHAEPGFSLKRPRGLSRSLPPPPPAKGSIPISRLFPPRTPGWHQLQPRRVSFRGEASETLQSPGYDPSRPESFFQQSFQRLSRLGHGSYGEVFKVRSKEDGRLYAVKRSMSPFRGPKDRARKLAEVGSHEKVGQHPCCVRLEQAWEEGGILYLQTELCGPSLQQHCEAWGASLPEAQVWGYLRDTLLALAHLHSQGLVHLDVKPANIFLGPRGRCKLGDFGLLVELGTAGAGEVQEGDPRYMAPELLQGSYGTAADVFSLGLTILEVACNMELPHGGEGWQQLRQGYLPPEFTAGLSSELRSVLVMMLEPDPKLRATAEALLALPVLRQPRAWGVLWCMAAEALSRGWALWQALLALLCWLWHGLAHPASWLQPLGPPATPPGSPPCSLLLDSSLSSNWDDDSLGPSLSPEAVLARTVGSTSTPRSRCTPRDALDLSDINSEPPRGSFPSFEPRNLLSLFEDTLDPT
Chain of DLK/MAP3K12 (Q12852 whole entry): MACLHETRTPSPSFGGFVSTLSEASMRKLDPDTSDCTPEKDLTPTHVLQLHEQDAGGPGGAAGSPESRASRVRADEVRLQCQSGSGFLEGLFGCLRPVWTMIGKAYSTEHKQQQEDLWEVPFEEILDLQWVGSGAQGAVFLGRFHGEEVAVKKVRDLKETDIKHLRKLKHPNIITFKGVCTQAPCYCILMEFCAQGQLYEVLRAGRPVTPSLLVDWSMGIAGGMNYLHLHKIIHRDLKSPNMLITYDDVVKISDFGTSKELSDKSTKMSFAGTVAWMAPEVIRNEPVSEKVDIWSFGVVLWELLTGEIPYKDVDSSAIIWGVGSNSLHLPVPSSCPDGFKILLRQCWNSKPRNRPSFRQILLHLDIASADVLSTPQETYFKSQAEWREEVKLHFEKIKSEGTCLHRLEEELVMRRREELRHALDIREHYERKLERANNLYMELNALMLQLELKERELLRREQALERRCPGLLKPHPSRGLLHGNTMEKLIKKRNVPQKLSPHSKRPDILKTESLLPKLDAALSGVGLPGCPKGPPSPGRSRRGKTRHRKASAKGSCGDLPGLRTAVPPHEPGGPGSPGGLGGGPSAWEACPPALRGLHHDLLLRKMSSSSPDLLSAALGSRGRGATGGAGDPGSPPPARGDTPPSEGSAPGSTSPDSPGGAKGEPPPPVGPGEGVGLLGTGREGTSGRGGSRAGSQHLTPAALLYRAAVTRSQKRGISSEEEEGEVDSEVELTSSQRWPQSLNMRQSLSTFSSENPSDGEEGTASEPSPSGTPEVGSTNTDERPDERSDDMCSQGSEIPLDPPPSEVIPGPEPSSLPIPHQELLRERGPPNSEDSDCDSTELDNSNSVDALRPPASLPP
Chain of CDK4/CYCLIN D2 (P11802 whole entry, species assumed): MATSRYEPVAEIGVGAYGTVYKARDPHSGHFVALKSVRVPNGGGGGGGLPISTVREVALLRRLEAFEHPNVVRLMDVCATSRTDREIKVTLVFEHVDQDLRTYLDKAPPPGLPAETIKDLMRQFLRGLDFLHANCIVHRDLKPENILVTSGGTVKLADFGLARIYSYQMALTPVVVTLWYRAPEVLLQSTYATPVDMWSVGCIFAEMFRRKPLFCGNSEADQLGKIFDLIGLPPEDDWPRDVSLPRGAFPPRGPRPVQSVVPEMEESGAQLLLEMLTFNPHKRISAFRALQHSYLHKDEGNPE
Chain of CDK4/CYCLIN D2 (P30279 whole entry partner, species assumed): as the sequence (P30279 whole entry partner, species assumed) above
Chain of CDK8/cyclin C (P49336 whole entry, species assumed): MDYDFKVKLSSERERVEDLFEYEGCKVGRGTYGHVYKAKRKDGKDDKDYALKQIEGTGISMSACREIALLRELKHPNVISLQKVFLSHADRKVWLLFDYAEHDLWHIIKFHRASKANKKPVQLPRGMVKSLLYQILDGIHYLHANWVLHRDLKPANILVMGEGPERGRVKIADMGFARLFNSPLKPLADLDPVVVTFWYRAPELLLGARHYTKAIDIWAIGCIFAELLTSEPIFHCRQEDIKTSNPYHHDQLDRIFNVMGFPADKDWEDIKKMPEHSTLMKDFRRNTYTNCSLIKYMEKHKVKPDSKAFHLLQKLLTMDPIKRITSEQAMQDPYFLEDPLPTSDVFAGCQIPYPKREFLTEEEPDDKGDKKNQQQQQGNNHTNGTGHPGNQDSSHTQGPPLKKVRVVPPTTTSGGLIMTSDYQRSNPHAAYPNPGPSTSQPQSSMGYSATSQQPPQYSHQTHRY
Chain of CDK8/cyclin C (P24863 whole entry partner, species assumed): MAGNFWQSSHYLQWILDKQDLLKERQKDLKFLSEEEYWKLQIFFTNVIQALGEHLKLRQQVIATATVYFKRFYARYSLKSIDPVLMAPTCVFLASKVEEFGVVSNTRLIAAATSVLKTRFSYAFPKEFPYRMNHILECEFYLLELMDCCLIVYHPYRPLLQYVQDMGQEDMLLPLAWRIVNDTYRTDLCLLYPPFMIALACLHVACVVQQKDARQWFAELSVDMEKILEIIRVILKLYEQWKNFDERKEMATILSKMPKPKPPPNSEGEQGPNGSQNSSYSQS
Chain of RIPK3 (Q9Y572 whole entry, species assumed): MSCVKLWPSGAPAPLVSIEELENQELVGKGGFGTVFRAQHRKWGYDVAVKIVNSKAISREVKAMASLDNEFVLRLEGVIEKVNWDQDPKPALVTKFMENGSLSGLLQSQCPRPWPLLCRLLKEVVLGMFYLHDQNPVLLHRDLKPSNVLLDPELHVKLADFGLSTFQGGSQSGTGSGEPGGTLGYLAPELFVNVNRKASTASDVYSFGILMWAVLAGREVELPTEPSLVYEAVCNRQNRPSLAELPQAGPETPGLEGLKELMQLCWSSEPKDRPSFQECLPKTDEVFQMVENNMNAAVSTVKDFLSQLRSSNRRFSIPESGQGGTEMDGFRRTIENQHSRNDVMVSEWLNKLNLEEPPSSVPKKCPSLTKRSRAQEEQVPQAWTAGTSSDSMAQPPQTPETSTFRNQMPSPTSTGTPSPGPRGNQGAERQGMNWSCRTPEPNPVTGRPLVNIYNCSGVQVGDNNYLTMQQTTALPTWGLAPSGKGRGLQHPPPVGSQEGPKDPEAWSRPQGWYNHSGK
Chain of CDK19/cyclin C (Q9BWU1 whole entry, species assumed): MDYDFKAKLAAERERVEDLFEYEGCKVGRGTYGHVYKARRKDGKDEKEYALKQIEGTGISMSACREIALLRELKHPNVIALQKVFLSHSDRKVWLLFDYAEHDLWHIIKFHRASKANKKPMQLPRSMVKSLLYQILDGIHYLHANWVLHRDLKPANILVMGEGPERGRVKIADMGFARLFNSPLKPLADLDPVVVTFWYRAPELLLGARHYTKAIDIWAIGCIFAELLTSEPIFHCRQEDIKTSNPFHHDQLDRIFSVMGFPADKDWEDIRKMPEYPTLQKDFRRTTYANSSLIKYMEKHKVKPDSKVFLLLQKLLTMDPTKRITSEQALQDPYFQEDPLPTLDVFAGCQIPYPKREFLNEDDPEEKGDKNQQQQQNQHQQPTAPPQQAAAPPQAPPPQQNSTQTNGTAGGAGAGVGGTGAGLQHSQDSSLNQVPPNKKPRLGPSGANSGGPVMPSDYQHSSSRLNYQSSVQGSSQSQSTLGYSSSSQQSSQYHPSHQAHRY
Chain of CDK19/cyclin C (P24863 whole entry partner, species assumed): as the sequence (P24863 whole entry partner, species assumed) above

| Structure (SMILES) | remaining activity at 1 µM (CDK19/cyclin C) | remaining activity at 1 µM (DLK/MAP3K12) | remaining activity at 1 µM (CDK8/cyclin C) | remaining activity at 1 µM (RIPK3) | remaining activity at 1 µM (PKMYT1) | remaining activity at 1 µM (CDK4/CYCLIN D2) | remaining activity at 1 µM (CDK6/CYCLIN D2) |
| --- | --- | --- | --- | --- | --- | --- | --- |
| Cc1ccc(Nc2ncc3c(n2)C2(CC2)C(=O)N(c2cc(NC(=O)c4cccc(C(F)(F)F)c4)ccc2C)C3)cn1 [Compound 51, N-(4-methyl-3-(2'-((6-methylpyridin-3-yl)amino)-7'-oxo-5'H-spiro[cyclopropane-1,8'-pyrido[4,3-d]pyrimidine]-6'(7'H)-yl)phenyl)-3-(trifluoromethyl)benzamide] | > 40% | > 40% | > 40% | ≤ 40% | > 40% |  |  |
| Cc1cn(-c2cc(C(=O)Nc3ccc(C)c(N4Cc5cnc(NC6CC6)nc5C5(CC5)C4=O)c3)cc(C(F)(F)F)c2)cn1 [Compound 8, N-(3-(2'-(cyclopropylamino)-7'-oxo-5'H-spiro[cyclopropane-1,8'-pyrido[4,3-d]pyrimidine]-6'(7'H)-yl)-4-methylphenyl)-3-(4-methyl-1H-imidazol-1-yl)-5-(trifluoromethyl)benzamide] |  |  |  |  |  | > 40% | > 40% |

Reference: EP4722212A1, “NOVEL COMPOUND FOR INHIBITING PROTEIN KINASES AND PHARMACEUTICAL COMPOSITION COMPRISING SAME” (Magicbullettherapeutics Co., Ltd., priority 2023, dated 2024)
